Among the test systems are LOX IMVI melanoma; UO-31 renal; HOP-92 NSCLC; DU-145 prostate; RXF 393 renal; HOP-62 NSCLC; NCI/ADR-RES ovarian; ACHN renal; SK-MEL-2 melanoma; EKVX NSCLC.
Holding throughout (test): growth of human tumour cells (NCI), 48 h

The structures appear in SMILES notation.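 Step 1: Grow cells in 96-well plates. Step 2: Expose to compound for 48 hours at 5 concentrations. Step 3: Interpolate endpoints linearly; if unreached, use highest concentration. The concentration for 50% growth inhibition is given as GI50. TGI denotes the concentration required for complete inhibition of growth.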 Where only a bound is given, the exact number is not on record here.

As to `O=C(CCCn1c2c(sc3ccccc32)c(=O)n2nnc(-c3ccccc3)c12)NCCc1cnc[nH]1`, the GI50 is 0.28 µM with LOX IMVI melanoma; 1.42 µM in the assay with UO-31 renal; 6.16 µM with HOP-92 NSCLC; 0.833 µM in the assay on DU-145 prostate; 2.56 µM in the assay on RXF 393 renal; 1.31 µM in the assay with HOP-62 NSCLC. In addition, the GI50 was 0.972 µM with NCI/ADR-RES ovarian, 1.37 µM in the assay on ACHN renal, 2.37 µM in the assay on SK-MEL-2 melanoma and 3.52 µM in the assay with EKVX NSCLC. The TGI was 2.49 µM with LOX IMVI melanoma; 2.95 µM in the assay with UO-31 renal; 33 µM in the assay with HOP-92 NSCLC; 2.2 µM in the assay on DU-145 prostate; 5.25 µM in the assay with RXF 393 renal; 2.87 µM with HOP-62 NSCLC. Besides, the TGI with NCI/ADR-RES ovarian is > 24.4 µM; with ACHN renal it was 2.94 µM; with SK-MEL-2 melanoma, 4.98 µM; with EKVX NSCLC, 18.6 µM.

With `C[C@H](c1ccc(F)cc1CCCC(=O)O)N(c1cc(F)ccc1F)S(=O)(=O)c1ccc(Cl)cc1`, the GI50 with LOX IMVI melanoma was 29.2 µM; in the assay with UO-31 renal, 25.4 µM; with HOP-92 NSCLC it was 17.9 µM; in the assay on DU-145 prostate it was 34 µM; with RXF 393 renal, 21 µM; in the assay with HOP-62 NSCLC, 24.4 µM. In addition, the GI50 in the assay on NCI/ADR-RES ovarian was 30.6 µM; in the assay with ACHN renal it was 30.8 µM; in the assay on SK-MEL-2 melanoma, 19.7 µM; in the assay with EKVX NSCLC it was 30 µM. Also, the TGI in the assay on LOX IMVI melanoma is > 100 µM; in the assay on UO-31 renal, > 100 µM; in the assay on HOP-92 NSCLC, > 82.5 µM; in the assay on DU-145 prostate it was > 100 µM; in the assay on RXF 393 renal, > 79.7 µM; in the assay with HOP-62 NSCLC it was > 70.2 µM. Moreover, the TGI with NCI/ADR-RES ovarian is > 100 µM; in the assay with ACHN renal, > 100 µM; in the assay with SK-MEL-2 melanoma, 41.7 µM; in the assay on EKVX NSCLC it was > 100 µM.

For `COC(=O)C12CCC(C)(C)CC1C1=CCC3C4(C)CC(O)C(O)C(C)(C(=O)OC)C4CCC3(C)C1(CO)CC2` (centres undefined), the TGI is 28.1 µM with LOX IMVI melanoma; 29.1 µM in the assay with HOP-92 NSCLC; 29.1 µM in the assay on DU-145 prostate; 19.5 µM in the assay with RXF 393 renal; 32.2 µM with HOP-62 NSCLC; 29.2 µM in the assay with NCI/ADR-RES ovarian. Further, the results for the TGI in the assay with ACHN renal, in the assay with SK-MEL-2 melanoma and in the assay on EKVX NSCLC were 27.2 µM, 28.2 µM and 44.1 µM, respectively.

Regarding `Oc1c(C(Nc2ccccn2)c2cccc(Oc3ccccc3)c2)ccc2cccnc12` (centres undefined), the GI50 is 0.468 µM with LOX IMVI melanoma; 0.382 µM in the assay on UO-31 renal; 0.522 µM in the assay with HOP-92 NSCLC; 0.774 µM with DU-145 prostate; 1.32 µM in the assay with RXF 393 renal; 0.448 µM in the assay on HOP-62 NSCLC. The GI50 with NCI/ADR-RES ovarian is 0.416 µM; with ACHN renal it was 0.41 µM; in the assay with SK-MEL-2 melanoma, 1.68 µM. Moreover, the TGI came out at 16.7 µM with LOX IMVI melanoma; 3.11 µM in the assay with UO-31 renal; 23.7 µM with HOP-92 NSCLC; 16.2 µM with DU-145 prostate; 22.1 µM in the assay on RXF 393 renal; 21 µM in the assay with HOP-62 NSCLC. Further, the TGI is > 100 µM in the assay on NCI/ADR-RES ovarian, 7.2 µM with ACHN renal and 21 µM in the assay on SK-MEL-2 melanoma.

For the compound `COC1=CC(c2ccc[nH]2)=N/C1=C\c1[nH]c(C)c(C(=O)CCC(=O)Oc2ccc3c(c2)CCC2C3CC[C@]3(C)[C@@H](O)CC[C@@H]23)c1C` (some centres undefined), the GI50 was 0.797 µM in the assay with LOX IMVI melanoma; 1.59 µM in the assay on UO-31 renal; 1.45 µM with HOP-92 NSCLC; 3.54 µM with DU-145 prostate; 4.71 µM in the assay with RXF 393 renal; 1.87 µM with HOP-62 NSCLC. Moreover, the GI50 was 4.58 µM with NCI/ADR-RES ovarian, 1.94 µM in the assay with ACHN renal and 3.52 µM in the assay with SK-MEL-2 melanoma. The TGI in the assay with LOX IMVI melanoma was 2.57 µM; with UO-31 renal it was 3.73 µM; in the assay with HOP-92 NSCLC, 4.39 µM; in the assay with DU-145 prostate, > 100 µM; in the assay on RXF 393 renal, 69.8 µM; with HOP-62 NSCLC it was 4.95 µM. Further, the TGI in the assay with NCI/ADR-RES ovarian is > 100 µM; in the assay on ACHN renal, 6.7 µM; in the assay with SK-MEL-2 melanoma, 17.8 µM.

`CC1(C)CC(=O)C=C(/C=C/Sc2c(Cl)c(Cl)nc(Cl)c2Cl)C1`: the GI50 is 3.26 µM with LOX IMVI melanoma; 10 µM in the assay on UO-31 renal; 16.7 µM in the assay with HOP-92 NSCLC; 10 µM in the assay with DU-145 prostate; 7.61 µM in the assay on RXF 393 renal; 12.9 µM in the assay on HOP-62 NSCLC. For the same compound, the GI50 is 11.3 µM in the assay on NCI/ADR-RES ovarian, 11.1 µM in the assay on ACHN renal and 70.2 µM with SK-MEL-2 melanoma. For the same compound, the TGI worked out at 12.9 µM in the assay with LOX IMVI melanoma; 33.4 µM in the assay with UO-31 renal; 35.2 µM in the assay with HOP-92 NSCLC; 21.7 µM in the assay with DU-145 prostate; 22 µM in the assay on RXF 393 renal; 27.8 µM with HOP-62 NSCLC. Besides, the TGI was 25.6 µM in the assay on NCI/ADR-RES ovarian, 23.3 µM in the assay with ACHN renal and > 100 µM with SK-MEL-2 melanoma.

Take `Cc1ccccc1C1=C(c2cn(C)c3ccccc23)C(=O)NC1=O`: the GI50 was 14.9 µM in the assay on LOX IMVI melanoma; > 25 µM in the assay with UO-31 renal; > 25 µM in the assay on HOP-92 NSCLC; 23.7 µM in the assay on DU-145 prostate; 7.02 µM in the assay on RXF 393 renal; > 24.1 µM in the assay on HOP-62 NSCLC. Also, the GI50 was 24.3 µM with NCI/ADR-RES ovarian, 7.33 µM in the assay on ACHN renal and 24.9 µM in the assay with SK-MEL-2 melanoma. Moreover, the TGI with LOX IMVI melanoma, in the assay with UO-31 renal, in the assay with HOP-92 NSCLC, in the assay with DU-145 prostate, in the assay with RXF 393 renal and in the assay on HOP-62 NSCLC was > 25 µM throughout. Besides, the TGI in the assay with NCI/ADR-RES ovarian, with ACHN renal and with SK-MEL-2 melanoma was > 25 µM in each case.

With `CNC(=O)c1nn(C)c2c1C(C)(C)Cc1cnc(Nc3cccc(N4CCN(C)CC4)c3)nc1-2`, the GI50 in the assay on LOX IMVI melanoma was 0.178 µM; in the assay with UO-31 renal, 0.0881 µM; in the assay on HOP-92 NSCLC it was 0.164 µM; with DU-145 prostate it was 0.686 µM; in the assay with RXF 393 renal, 0.147 µM; in the assay with HOP-62 NSCLC, 0.44 µM. The GI50 was 2.1 µM in the assay on NCI/ADR-RES ovarian, 0.0896 µM in the assay with ACHN renal and 0.244 µM in the assay on SK-MEL-2 melanoma. Moreover, the TGI with LOX IMVI melanoma amounted to 2.53 µM; with UO-31 renal it was 1.96 µM; with HOP-92 NSCLC, 1.8 µM; in the assay on DU-145 prostate it was 14 µM; in the assay on RXF 393 renal, 1.38 µM; in the assay with HOP-62 NSCLC it was 17.9 µM. Further, the TGI in the assay on NCI/ADR-RES ovarian was > 48.8 µM; with ACHN renal it was > 58.2 µM; with SK-MEL-2 melanoma, 4.22 µM.

For the origin of these results see PubChem BioAssay (NCI).
